Laboratory results as given in US20170343554A1, “METHODS OF MEASURING ERBB SIGNALING PATHWAY ACTIVITY TO DIAGNOSE AND TREAT CANCER PATIENTS” (Celcuity LLC, priority 2014, published 2017).
Read-outs that look alike come from different tables or passages of the source.

What was measured:
[1] = system: HER2 signaling pathway activity in viable breast cancer cells of non-overexpressed HER2 patients; test: CELx test of HER2 signaling pathway activity by CAS with perturbing and confirming agents (Example 7); format: cell-based, human; conditions: for % Attenuation of NRG1 Signal: non-overexpressing HER2, HER2-driven disease, clinically relevant single concentration; for attenuation of the NRG1 and EGF driven activity, comparison in words: five patients of Table 17, single concentration
Source text: Analyte and measurand: The analyte of the diagnostic test used herein is the cell attachment signal (CAS) that viable patient cells generate, alone or in the presence of specific cell signaling pathway perturbants, when placed in the well of an impedance biosensor microplate and continuously measured for electrical impedance. For every test, the CAS is continuously measured and used in the measurand algorithm for up to four portions of patient cell samples from the same patient. • 1. Patient cells only (C) • 2. Patient cells+perturbing pathway factor 1 (CF1) • 3. Patient cells+perturbing pathway factor 2 (CF2) (if necessary) • 4. Patient cells+perturbing pathway factor(s)+Confirming agent (CCF)
The CAS is quantified for each of the up to four portions of patient samples tested (C, CF1, CF2, CCF). To quantify the signaling pathway activity of a patient's diseased cells, the CAS measured in the CF1 and/or CF2 portions is compared to the CAS measured in the C portion. This enables determination of the change in CAS between the CF and C sample portions relative to the change in CAS between the CCF and CF sample portions to confirm how much of the change between CF and C is related to the signaling pathway of interest.
In using this confirming agent, the difference between the CAS of CF1 and/or CF2 and C can be correctly apportioned to HER2 participation. When this confirming agent is applied to cell samples before the perturbing agent, the perturbing agent is blocked from HER2-receptor-related activities thereby generating a CAS value for CCF below the CF1 and/CF2 CAS values by an amount proportional to the participation of the HER2 receptor in the CF1 and/or CF2 change relative to C.
Standard media based on DMEM/F12 without serum, with antibiotics (e.g. penicillin, streptomycin, amphotericin), and HEPES buffer were purchased and used as delivered from VWR (Radnor, Pa.) or Life Technologies (Grand Island, N.Y.).
The commercial-source cell lines were received on dry ice and cultured according to recommendation by the commercial provider. […] Prior to addition to the impedance microplate, the cells were removed from their growth container with trypsin/EDTA solution, counted, and re-suspended in media with antibiotics, without serum, or other growth factors.
The test procedure used (hereinafter referred to as CELx) comprised the following steps, all performed in 5% CO2, 85% humidity, at 37° C.: • 1. Cell Seeding: 180 uL aliquots containing 15,000 viable epithelial cells from each patient or cell line in mammary epithelial growth media with antibiotics, without serum, or other growth factors were distributed to each designated well (C, CCF, CF1, CF2) of an impedance microplate. Impedance was continuously measured throughout steps 2-4 described below. • 2. Confirming agent (20 uL) was added six hours after seeding to pre-specified CCF wells for each cell sample. […] Perturbing Factors were added (20 uL) 18 hours after seeding to pre-specified CF wells for each sample. Wells not receiving perturbing factor received media as control. • 4. Continuous impedance recordings were made for each test well for each patient typically for at least 15 hours after the perturbing agents were added.

[2] = system: MAPK signaling pathway activity of cell sample C54; test: CAS measurement after culture in fresh or non-fresh base media (Example 8); format: cell-based
Protocol: Many cell screening assays prescribe a simplified media-buffer that cells are placed in before and during the short time they are tested. The present invention with viable primary patient cells is performed with a base media used to maintain viable primary cell samples such that the cell population remains viable and retains its heterogeneity of individual cell types and a normal distribution of cells representing the different phases of the cell cycle during the complete test time of continuous measurement. […] A further aspect of the method includes replacing the base media with fresh base media within 72 hours of initiating contact with the perturbing or confirming agents.
The data highlights the importance of culturing the cells in fresh base media before a cell sample is contacted with a perturbing or confirming agent.

[3] = system: cells from two HER2 overexpressing breast cancer patients (Patient B1 and B4); test: CELx Pathway Shutdown test, impedance biosensor CReMS, EGF perturbation (Example 1); format: cell-based, human
Source text: The change in impedance for a particular well is proportional to the number of cells and type of attachment the cells have with the impedance microplate. Changes in impedance indicate a response to perturbation of these small cell populations.
Prior to addition to the impedance microplate, the cells were removed from their growth container with versene, counted, and re-suspended in media without serum or other growth factors.

[4] = system: BT474 breast cancer cell line cells; test: Cell attachment signal (CAS) diagnostic assay, impedance biosensor (Example 6); format: cell-based; conditions: lapatinib with NRG1, fulvestrant with estradiol
Protocol: (§1) The analyte of the diagnostic test used herein is the cell attachment signal (CAS) that viable patient cells generate, alone or in the presence of cell antagonists, when placed in the well of a microplate and analyzed with an impedance biosensor. For every test, the CAS is measured and analyzed for […] of patient cell samples. • 1) Patient cells only (C) • 2) Patient cells+pathway factor(s) (CF) • 3) Patient cells+pathway factor(s)+confirming agent (CCF)
(§2) To detect whether the signaling pathway is functioning normally, the signaling pathway in a patient's diseased cells are perturbed and the resulting activity is compared to the effect the perturbant has on the signaling pathway activity of their healthy cells or the effect of perturbant on the signaling pathway activity of healthy cells from a patient or patients known to be free of disease. The assay measures the change in CAS between the CF and C cells in a patient's healthy cells relative to the change in CAS between the CF and C cells in the diseased cells. Alternatively, the assay can measure the change in CAS between the CF and the C cells in a patient's diseased cells that can be compared to a known result from a patient or pool of patients known to be free of disease. Essentially, if the signaling pathways are abnormal, the CAS change between the healthy and diseased cells will be different. The measurement of change in CAS between CF and CCF diseased cells from a subject provides confirmation that the CF CAS represents activity of the signaling pathway of interest. In the case where CCF is not changed relative to CF, this would indicate that the signaling pathway activity in CF represents some other signaling pathway activity that is not related to the condition of interest. In these cases, the patient would not be considered to have the disease being analyzed.
(§3) Studies were performed confirming the ability of this cell analysis method to measure specific pathway activity in primary non-transformed malignant and healthy epithelial cells as well as cell lines. Representative data from these studies is shown in FIGS. 10 and 11 for two critical pathways involved in breast cancer, PI3K and ERα.

[5] = system: Patient 54 primary breast cancer cells; test: as above; format: cell-based, human; conditions: Patient 54 primary tumor cells, lapatinib with NRG1, fulvestrant with estradiol
Protocol: as §1, §2, §3

[6] = system: cancer patients (Patients B1, B2, B4, C1, C2); conditions: cited from earlier work
[7] = system: breast cancer patient cells; test: CELx Pathway Shutdown single drug tests, impedance biosensor CReMS (Example 4); format: cell-based, human; conditions: one patient breast cancer cell sample expected to be a responder (FIG. 8B)
Protocol: The physiologic change of the cells and drugs tested was measured with an impedance biosensor CReMS and the summary output from the CReMS is recorded in FIG. 4.
In those experiments involving a combination of drugs, the procedures described in Example 3 were utilized. The list of patient cells and the drug tested with the cells is characterized in FIG. 4.

[8] = system: cells from two breast cancer patients (Patients B1 and B2); test: CELx Anti-Proliferative test, impedance biosensor CReMS (Example 2); format: cell-based, human; conditions: for responsiveness, CReM output (cell index) compared to control cells: continuous recording 48-72 hours
Protocol: A CELx Anti-Proliferative test was performed using cells from two breast cancer patients (Patients B1 and B2) and the drug Paclitaxel. The physiologic change of the B land B2 cells during the test was measured with an impedance biosensor CReMS and the output from the CReMS is recorded in FIGS. 2A and 2B. The comparison of the CELx test results and the third party clinical reference is recorded in FIG. 2C.
The CReMS, microplate, reagents, and buffers used in Example 1 are the same as those employed in Example 2, except for the therapeutic agent tested. In Example 2, the therapeutic agent, paclitaxel, was tested. Paclitaxel was purchased from Selleck Chemicals (TX, USA).
Breast Cancer cells from Patients B1 and B2 were utilized and handled in the same manner as described in Example 1.
Between 6,000-12,000 cells in each well were seeded onto the impedance microplate containing 120 uL settling media with serum. Forty microliters of the drug paclitaxel were added to one set each of the B1 and B2 cells; another control set of B1 and B2 cells received no drug. The CReMS recording of physiologic change was maintained continuously from when the cells were first seeded on the microplate through complete cellular response, which was between 48-72 hours. The test was performed at 37° C., 5% CO2 and at 75% relative humidity.

EGF: human epidermal growth factor, perturbing agent of HER1-HER2 receptor pairings
% HER2 Participation, ((CF-C) − (CCF-C))/(CF-C))*100 ([1]; Patient R112): 25% | Measurand (HER2 signal), ~(CF-C) − (CCF-C) ([1]; Patient R112): 103 | Total Ligand Signal (CF-C) ([1]; Patient R112): 398 | CAS (CCF), confirming factor + perturbing factor addition sample ([1]; Patient R112, HER2 participation confirming factor added before the perturbing ligand): 337 | signaling pathway activity (CAS) on perturbation ([2]; cell sample C54 cultured in fresh base media prior to contact): significant MAPK signaling pathway activity | signaling pathway activity (CAS) on perturbation ([2]; cell sample C54 cultured in non-fresh base media prior to perturbation): no signaling pathway activity

Pertuzumab
% Attenuation of NRG1 Signal ([1]; Patient R71): 68% | % Attenuation of NRG1 Signal ([1]; Patient R160): 95% | attenuation of the NRG1 and EGF driven activity, comparison in words [1]: significant attenuation | amount of pertuzumab inhibition of NRG1 driven activity, compared with SKBR3 ([1]; non-overexpressed HER2 patient sample R39 versus overexpressed HER2 cell line SKBR3): greater

CS(=O)(=O)CCNCc1ccc(-c2ccc3ncnc(Nc4ccc(OCc5cccc(F)c5)c(Cl)c4)c3c2)o1 [Lapatinib]
CELx Pathway Shutdown test prediction of patient response ([3]; Patient B1): will respond | CELx Pathway Shutdown test prediction of patient response ([3]; Patient B4): would respond | effect of the confirming agent on the CAS generated by the pathway factor [4]: reduces | effect of the confirming agent on the CAS generated by the pathway factor ([4]; listed as lapatinib): reduced | effect of the confirming agent on the CAS generated by the pathway factor [5]: reduces | effect of the confirming agent on the CAS generated by the pathway factor ([5]; listed as lapatinib): reduced | responsiveness recorded by the third party clinical reference standard ([6]; Patient B1 (breast cancer)): responsive | responsiveness recorded by the third party clinical reference standard ([6]; Patient B4 (breast cancer)): responsive

CCOc1cc2ncc(C#N)c(Nc3ccc(OCc4ccccn4)c(Cl)c3)c2cc1NC(=O)/C=C/CN(C)C [Neratinib]
% Attenuation of NRG1 Signal ([1]; Patient R20): 104% | % Attenuation of NRG1 Signal ([1]; Patient R39): 107% | % Attenuation of NRG1 Signal ([1]; Patient R71): 100% | % Attenuation of NRG1 Signal ([1]; Patient R82): 105% | % Attenuation of NRG1 Signal ([1]; Patient R160): 118% | attenuation of the NRG1 and EGF driven activity, comparison in words [1]: highest percentage attenuation

COc1cc2ncnc(Nc3ccc(F)c(Cl)c3)c2cc1OCCCN1CCOCC1 [Gefitinib]
response in the CReMS testing [7]: did not show a response

CC(=O)O[C@H]1C(=O)[C@@]2(C)[C@H]([C@H](OC(=O)c3ccccc3)[C@]3(O)C[C@H](OC(=O)[C@H](O)[C@@H](NC(=O)c4ccccc4)c4ccccc4)C(C)=C1C3(C)C)[C@]1(OC(C)=O)CO[C@@H]1C[C@@H]2O [Paclitaxel]
CELx Anti-Proliferative test prediction of patient response ([8]; Patient B1): will respond | responsiveness, CReM output (cell index) compared to control cells ([8]; Patient B1 cells): immediate and continuous responsiveness | CELx Anti-Proliferative test prediction of patient response ([8]; Patient B2): will respond | time after which the CReM output reverses (test cells begin proliferating, no longer responsive) ([8]; Patient B2 cells): roughly 24 hours | responsiveness, CReM output (cell index) compared to control cells ([8]; Patient B2 cells): initial responsiveness | responsiveness recorded by the third party clinical reference standard ([6]; Patient B1 (breast cancer)): responsive | responsiveness recorded by the third party clinical reference standard ([6]; Patient B2 (breast cancer)): responsive

C[C@]12CC[C@@H]3c4ccc(O)cc4C[C@@H](CCCCCCCCC[S+]([O-])CCCC(F)(F)C(F)(F)F)[C@H]3[C@@H]1CC[C@@H]2O (stereo partly drawn) [fulvestrant]
effect of the confirming agent on the CAS generated by the pathway factor [4]: reversed | effect of the confirming agent on the CAS generated by the pathway factor ([4]; listed as Fulvestrant): reduced | effect of the confirming agent on the CAS generated by the pathway factor [5]: reversed | effect of the confirming agent on the CAS generated by the pathway factor ([5]; listed as Fulvestrant): reduced
